# From ChEMBL document CHEMBL1687705, “Design, Synthesis, and in Vitro Evaluation of Novel Aminomethyl-pyridines as DPP-4 Inhibitors” (ACS Med Chem Lett, 2010)
# Columns and labels:
# Dipeptidyl peptidase 4 = Dipeptidyl peptidase 4 (Homo sapiens, UniProt P27487); assay: Inhibition of human recombinant DPP4 assessed as Gly-Pro-pNA chromogenic substrate cleavage for 16 mins preincubated with compound for 10 mins before addition of chromogenic substrate
# HeLa [1] = assay: Cytotoxicity against human HeLa cells at 10 uM; type: functional, cell-based
# HeLa [2] = assay: Cytotoxicity against human HeLa cells; type: functional; details: read-out: LC50 (the source's name)
# Dipeptidyl peptidase 8 = Dipeptidyl peptidase 8 (Homo sapiens, UniProt Q6V1X1); assay: Inhibition of human recombinant DPP8 assessed as Gly-Pro-pNA chromogenic substrate cleavage for 16 mins preincubated with compound for 10 mins before addition of chromogenic substrate
# Sequence of Dipeptidyl peptidase 8 (Q6V1X1 whole entry): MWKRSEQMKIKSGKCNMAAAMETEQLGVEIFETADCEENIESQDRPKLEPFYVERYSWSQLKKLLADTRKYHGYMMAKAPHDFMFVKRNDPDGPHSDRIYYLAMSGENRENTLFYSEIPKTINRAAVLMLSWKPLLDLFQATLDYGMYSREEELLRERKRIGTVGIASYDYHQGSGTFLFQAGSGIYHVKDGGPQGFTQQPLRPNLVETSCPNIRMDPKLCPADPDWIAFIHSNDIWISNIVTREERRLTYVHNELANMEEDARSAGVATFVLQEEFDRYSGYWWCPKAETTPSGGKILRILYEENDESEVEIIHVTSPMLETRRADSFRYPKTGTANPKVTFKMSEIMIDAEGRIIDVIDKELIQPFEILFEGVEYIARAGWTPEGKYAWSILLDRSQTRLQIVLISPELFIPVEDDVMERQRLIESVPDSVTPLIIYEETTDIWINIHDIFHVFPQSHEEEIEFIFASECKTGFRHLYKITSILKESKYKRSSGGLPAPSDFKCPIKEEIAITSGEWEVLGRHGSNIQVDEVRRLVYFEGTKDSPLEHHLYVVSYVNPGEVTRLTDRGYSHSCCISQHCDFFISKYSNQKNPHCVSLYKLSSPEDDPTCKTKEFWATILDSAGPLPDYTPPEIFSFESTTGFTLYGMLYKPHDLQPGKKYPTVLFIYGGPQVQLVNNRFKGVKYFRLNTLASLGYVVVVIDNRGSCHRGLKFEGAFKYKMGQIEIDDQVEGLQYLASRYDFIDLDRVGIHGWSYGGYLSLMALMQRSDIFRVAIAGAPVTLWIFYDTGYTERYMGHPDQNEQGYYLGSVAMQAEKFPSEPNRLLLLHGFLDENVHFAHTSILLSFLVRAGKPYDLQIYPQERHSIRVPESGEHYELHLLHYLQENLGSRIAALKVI
# Homo sapiens = species on record: Homo sapiens; assay: Selectivity ratio of IC50 for human recombinant DPP8 to IC50 for human recombinant DPP4
# Sequence of Dipeptidyl peptidase 4 (P27487 whole entry): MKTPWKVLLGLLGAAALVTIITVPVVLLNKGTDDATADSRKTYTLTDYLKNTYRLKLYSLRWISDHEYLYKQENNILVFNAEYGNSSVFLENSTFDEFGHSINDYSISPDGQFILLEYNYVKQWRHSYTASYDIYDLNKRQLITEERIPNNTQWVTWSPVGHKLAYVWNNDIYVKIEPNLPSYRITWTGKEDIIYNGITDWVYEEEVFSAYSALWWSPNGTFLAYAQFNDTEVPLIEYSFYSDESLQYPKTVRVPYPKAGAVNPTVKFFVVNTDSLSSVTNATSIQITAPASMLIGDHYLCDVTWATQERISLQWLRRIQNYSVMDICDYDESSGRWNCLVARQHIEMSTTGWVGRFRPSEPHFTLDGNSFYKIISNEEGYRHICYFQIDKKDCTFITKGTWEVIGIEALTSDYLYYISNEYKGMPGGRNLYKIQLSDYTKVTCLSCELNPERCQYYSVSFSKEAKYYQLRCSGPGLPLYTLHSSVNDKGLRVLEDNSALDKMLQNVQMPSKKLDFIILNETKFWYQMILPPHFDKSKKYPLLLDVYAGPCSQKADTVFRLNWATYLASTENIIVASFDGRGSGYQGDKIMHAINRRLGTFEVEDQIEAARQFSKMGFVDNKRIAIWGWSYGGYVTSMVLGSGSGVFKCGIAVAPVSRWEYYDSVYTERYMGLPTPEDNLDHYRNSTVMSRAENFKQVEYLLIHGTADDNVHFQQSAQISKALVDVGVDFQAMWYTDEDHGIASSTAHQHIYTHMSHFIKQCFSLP
IC50 (Dipeptidyl peptidase 4) [µM],Structure (SMILES),Activity (HeLa [1]),CC50 (HeLa [2]) [µM],also measured
< 50,Cc1nc(C(=O)N2CCCC2)cc(-c2ccccc2F)c1CN,–,–,–
< 50,Cc1nc(C(=O)N2CCCC2)cc(-c2ccc(F)cc2F)c1CN,–,–,–
< 50,CNC(=O)c1cc(-c2ccc(Cl)cc2)c(CN)c(C)n1,–,–,–
< 50,Cc1nc(C(=O)N2CCOCC2)cc(-c2ccc(F)cc2)c1CN,–,–,–
< 50,Cc1nc(C(=O)O)cc(-c2ccc(F)cc2)c1CN,–,–,–
< 50,Cc1nc(C(N)=O)cc(-c2ccccc2F)c1CN,–,–,–
< 50,Cc1nc(C(=O)O)cc(-c2ccc(F)cc2F)c1CN,–,–,–
< 50,Cc1nc(C(=O)N2CCOCC2)cc(-c2ccc(F)cc2F)c1CN,–,–,–
< 50,Cc1nc(C(=O)N2CCOCC2)cc(-c2ccc(Cl)cc2Cl)c1CN,Not toxic,–,–
< 50,Cc1nc(C(=O)NC2CC2)cc(-c2ccccc2F)c1CN,–,–,–

# More lines, now with the values behind:
Structure (SMILES),IC50 (Dipeptidyl peptidase 4) [µM],Activity (HeLa [1]),CC50 (HeLa [2]) [µM],also measured
COC(=O)CNC(=O)c1cc(-c2ccc(F)cc2F)c(CN)c(C)n1,< 50,–,–,–
Cc1nc(C(=O)N2CCCC2)cc(-c2ccc(Cl)cc2Cl)c1CN,–,Not toxic,> 10,–
Cc1nc(C(=O)NC2CC2)cc(-c2ccc(Cl)cc2Cl)c1CN,< 50,Not toxic,–,–
Cc1nc(C(=O)N2CCCC2)cc(-c2ccc(F)cc2)c1CN,–,–,> 10,Ki (Dipeptidyl peptidase 8): 137 µM
Cc1cc(NC(=O)c2cc(-c3ccc(F)cc3F)c(CN)c(C)n2)no1,–,–,> 10,Ki (Dipeptidyl peptidase 8): 179 µM
Cc1nc(C(N)=O)cc(-c2ccc(Cl)cc2Cl)c1CN,–,Not toxic,> 10,–
CNC(=O)c1cc(-c2ccc(Cl)cc2Cl)c(CN)c(C)n1,–,Not toxic,> 10,–
Cc1nc(C(=O)NC2CC2)cc(-c2ccc(F)cc2F)c1CN,–,–,> 10,Ki (Dipeptidyl peptidase 8): 182 µM
Cc1nc(C(=O)NCC(N)=O)cc(-c2ccc(Cl)cc2Cl)c1CN,< 50,Not toxic,–,Ratio IC50 (Homo sapiens): 6600
Cc1nc(CN)cc(-c2ccc(Cl)cc2)c1C(N)=O,> 50,–,–,–
Cc1nc(C(=O)NC2CC2)cc(-c2ccc(F)cc2)c1CN,–,–,> 10,Ki (Dipeptidyl peptidase 8): 106 µM
Cc1nc(C(=O)NCC#N)cc(-c2ccc(Cl)cc2Cl)c1CN,–,Not toxic,> 10,–
Cc1nc(CN)cc(-c2ccccc2F)c1C(N)=O,> 50,–,–,–
